Source: patent US20090149458A1, “PYRROLO[3,2-d]PYRIMIDINE COMPOUNDS AND THEIR USE AS PI3 KINASE AND mTOR KINASE INHIBITORS” (Wyeth, priority 2007, published 2009)

Key:
Format in all cases: biochemical
PI3 Kinase α = PI3 Kinase α (Homo sapiens, UniProt P42336); test: PI3K fluorescence polarization assay (PI3 Kinase α); settings: 20 uM PIP2, 25 uM ATP;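 further: enzyme reaction with inhibitor or DMSO control, 30–60 min at room temperature, stopped by EDTA, then TAMRA detector with GST-GRP fluorescence polarization read after 90–110 min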
Chain of PI3 Kinase α (P42336 whole entry): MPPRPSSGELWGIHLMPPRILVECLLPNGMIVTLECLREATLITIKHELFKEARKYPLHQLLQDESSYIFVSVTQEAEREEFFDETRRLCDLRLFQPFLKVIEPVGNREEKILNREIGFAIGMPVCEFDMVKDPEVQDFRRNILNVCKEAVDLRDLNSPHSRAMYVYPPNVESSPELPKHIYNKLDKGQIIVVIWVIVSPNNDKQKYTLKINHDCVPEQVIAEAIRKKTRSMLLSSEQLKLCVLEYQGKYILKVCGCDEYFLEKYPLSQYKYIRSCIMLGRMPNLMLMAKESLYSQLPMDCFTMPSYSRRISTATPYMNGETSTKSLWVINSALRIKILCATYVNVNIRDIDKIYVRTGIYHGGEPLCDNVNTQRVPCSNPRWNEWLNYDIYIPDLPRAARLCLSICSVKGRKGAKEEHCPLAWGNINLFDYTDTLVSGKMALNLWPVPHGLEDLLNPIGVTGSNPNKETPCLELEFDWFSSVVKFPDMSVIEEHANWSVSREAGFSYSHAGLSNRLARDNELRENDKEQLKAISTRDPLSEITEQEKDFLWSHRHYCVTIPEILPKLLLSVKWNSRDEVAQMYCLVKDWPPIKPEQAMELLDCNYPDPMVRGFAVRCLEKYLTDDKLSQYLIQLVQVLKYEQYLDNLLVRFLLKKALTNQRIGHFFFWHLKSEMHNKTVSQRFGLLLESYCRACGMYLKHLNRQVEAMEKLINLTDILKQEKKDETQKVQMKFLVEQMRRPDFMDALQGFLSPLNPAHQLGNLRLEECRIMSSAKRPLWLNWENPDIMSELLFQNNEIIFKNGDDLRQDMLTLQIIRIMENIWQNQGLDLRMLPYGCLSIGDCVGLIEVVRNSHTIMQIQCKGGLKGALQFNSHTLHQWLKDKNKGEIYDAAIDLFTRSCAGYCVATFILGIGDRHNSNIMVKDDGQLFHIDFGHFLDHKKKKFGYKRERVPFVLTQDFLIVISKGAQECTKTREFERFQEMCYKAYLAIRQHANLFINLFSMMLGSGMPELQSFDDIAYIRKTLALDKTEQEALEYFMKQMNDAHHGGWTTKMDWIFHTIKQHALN
Chain of PI3 Kinase α (P27986 whole entry partner): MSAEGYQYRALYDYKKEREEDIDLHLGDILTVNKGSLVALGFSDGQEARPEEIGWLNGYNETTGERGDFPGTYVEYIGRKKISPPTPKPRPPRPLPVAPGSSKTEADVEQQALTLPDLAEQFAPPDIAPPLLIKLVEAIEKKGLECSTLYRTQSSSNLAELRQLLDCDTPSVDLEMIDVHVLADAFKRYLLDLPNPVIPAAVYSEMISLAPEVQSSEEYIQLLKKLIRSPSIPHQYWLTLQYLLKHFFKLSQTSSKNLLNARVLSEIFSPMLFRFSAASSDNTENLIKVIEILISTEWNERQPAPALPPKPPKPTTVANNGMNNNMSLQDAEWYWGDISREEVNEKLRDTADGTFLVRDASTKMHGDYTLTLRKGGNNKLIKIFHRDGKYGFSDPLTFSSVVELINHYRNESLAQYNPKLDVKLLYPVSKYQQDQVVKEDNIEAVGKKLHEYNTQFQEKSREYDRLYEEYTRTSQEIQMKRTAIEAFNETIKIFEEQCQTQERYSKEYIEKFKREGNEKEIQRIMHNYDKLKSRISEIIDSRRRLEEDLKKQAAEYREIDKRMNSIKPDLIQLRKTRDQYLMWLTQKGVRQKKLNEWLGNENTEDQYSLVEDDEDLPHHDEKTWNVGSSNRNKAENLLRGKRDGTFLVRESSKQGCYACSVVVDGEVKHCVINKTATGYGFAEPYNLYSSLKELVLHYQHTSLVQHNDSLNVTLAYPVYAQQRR

human TOR = biological target: T1, human TOR (Homo sapiens, UniProt P42345); test: human TOR kinase assay with purified enzyme, DELFIA format; settings: FLAG-TOR, 100 μM ATP, His6-S6K substrate;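 further: 2 h kinase reaction at room temperature, phosphorylation of S6K at T389 detected with a europium-labelled antibody after plate capture, DMSO vehicle as control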
T1 construct: FLAG

PI3 Kinase γ = PI3 Kinase γ (Homo sapiens, UniProt P48736); test: PI3K fluorescence polarization assay (PI3 Kinase γ); settings: 20 uM PIP2, 25 uM ATP
Chain of PI3 Kinase γ (P48736 whole entry): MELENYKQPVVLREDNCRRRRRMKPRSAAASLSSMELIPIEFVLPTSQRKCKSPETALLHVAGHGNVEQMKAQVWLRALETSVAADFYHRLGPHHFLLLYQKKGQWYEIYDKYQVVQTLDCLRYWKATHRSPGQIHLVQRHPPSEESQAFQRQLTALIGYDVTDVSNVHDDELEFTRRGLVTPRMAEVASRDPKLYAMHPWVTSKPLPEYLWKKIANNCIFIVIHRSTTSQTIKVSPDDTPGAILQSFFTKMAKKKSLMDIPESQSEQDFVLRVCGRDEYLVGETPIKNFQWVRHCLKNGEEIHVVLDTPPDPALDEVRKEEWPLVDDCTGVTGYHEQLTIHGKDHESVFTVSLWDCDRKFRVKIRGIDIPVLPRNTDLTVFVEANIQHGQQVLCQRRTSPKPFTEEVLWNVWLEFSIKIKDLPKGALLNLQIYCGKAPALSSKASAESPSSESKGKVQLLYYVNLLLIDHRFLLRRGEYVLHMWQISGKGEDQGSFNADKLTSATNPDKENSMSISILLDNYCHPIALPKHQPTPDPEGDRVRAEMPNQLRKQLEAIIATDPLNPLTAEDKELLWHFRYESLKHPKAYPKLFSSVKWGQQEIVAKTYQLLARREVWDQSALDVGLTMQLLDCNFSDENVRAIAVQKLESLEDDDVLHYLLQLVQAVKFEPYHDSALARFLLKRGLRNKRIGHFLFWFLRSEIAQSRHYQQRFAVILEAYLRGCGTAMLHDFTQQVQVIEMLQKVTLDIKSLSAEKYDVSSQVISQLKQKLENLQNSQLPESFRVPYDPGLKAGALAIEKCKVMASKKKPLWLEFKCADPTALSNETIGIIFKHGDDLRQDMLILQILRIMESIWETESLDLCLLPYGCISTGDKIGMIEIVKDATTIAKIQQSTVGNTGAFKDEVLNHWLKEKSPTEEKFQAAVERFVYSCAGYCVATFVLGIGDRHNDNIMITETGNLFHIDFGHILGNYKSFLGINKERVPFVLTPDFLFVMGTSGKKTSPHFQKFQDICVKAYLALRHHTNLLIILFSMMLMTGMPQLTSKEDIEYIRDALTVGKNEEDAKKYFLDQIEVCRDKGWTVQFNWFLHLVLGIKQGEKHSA
Method: Buffers: Reaction Buffer: 20 mM HEPES pH7.5, 2 mM MgCl2, 0.05% CHAPS, and 0.01% bME (added fresh); STOP/detection Buffer: 100 mM HEPES pH7.5, 4 mM EDTA, 0.05% CHAPS. STOCKS: ATP 20 mM in H2O; PIP2 (diC8, Echelon cat# P-4508) 1 mM in H2O MW=856.5; GST-murine GRP 1.5 mg/ml in 17% glycerol; Red detector probe-Echelon (TAMRA) 2.5 uM. Plate: Nunc 384 well black polypropylene fluor. Plate.
Assay: The assay is run by putting 9.5 ul of freshly diluted enzyme (in “reaction buffer”) per well, then 0.5 ul of diluted drug or DMSO mixing. Then 10 ul of substrate is added to start the reaction. The mixture is incubated 30-60 minutes, room temp, then stopped with 20 ul of stop/detector mix. The substrate solution, is 40 μM PIP2 and 50 uM ATP in reaction buffer. Addition of 10 ul of substrate to each well starts the reaction. This is 20 uM PIP2, 25 uM ATP final in reaction.
Stop/detector mix: 10 nM TAMRA detector, 40 nM GST-GRP in STOP/detection buffer. To stop reaction: add 20 ul Stop/detector mix per well and mix well. Wait 90-110 minutes before reading plate. Plates are read on Perkin-Elmer Envision plate readers with filters for Tamra. Keep Red probe solutions dark. This procedure is adapted from Echelon Biosciences Inc procedure for their PI3-Kinase fluorescence polarization activity Assay kit Product number K-1100.

| IC50 (PI3 Kinase α) | IC50 (human TOR) | IC50 (PI3 Kinase γ) | Compound |
| --- | --- | --- | --- |
| 0.95 µM | > 4 µM | 0.443 µM | c1ccc(COc2cccc(-c3nc(N4CCOCC4)c4[nH]ccc4n3)c2)cc1 [Example 1, 2-[3-(benzyloxy)phenyl]-4-morpholin-4-yl-5H-pyrrolo[3,2-d]pyrimidine] |
|  |  | 0.164 µM | Oc1cccc(-c2nc(N3CCOCC3)c3[nH]ccc3n2)c1 [Example 2, 3-(4-morpholin-4-yl-5H-pyrrolo[3,2-d]pyrimidin-2-yl)phenol] |
|  |  | 0.918 µM | OCc1cccc(-c2nc(N3CCOCC3)c3[nH]ccc3n2)c1 [Example 3, [3-(4-morpholin-4-yl-5H-pyrrolo[3,2-d]pyrimidin-2-yl)phenyl]methanol] |
|  | 5 µM | > 8.7 µM | Cc1cccc(-c2nc(N3CCOCC3)c3[nH]ccc3n2)c1 [Example 4, 2-(3-methylphenyl)-4-morpholin-4-yl-5H-pyrrolo[3,2-d]pyrimidine] |
|  | 0.43 µM | 8 µM | Nc1cccc(-c2nc(N3CCOCC3)c3[nH]ccc3n2)c1 [Example 5, 3-(4-morpholin-4-yl-5H-pyrrolo[3,2-d]pyrimidin-2-yl)aniline] |
| 2.67 µM | 0.22 µM | 4.98 µM | CNC(=O)Nc1ccc(-c2nc(N3CCOCC3)c3[nH]ccc3n2)cc1 [Example 6, 1-methyl-3-[4-(4-morpholin-4-yl-5H-pyrrolo[3,2-d]pyrimidin-2-yl)phenyl]urea] |
|  |  | 1.12 µM | OCc1cccc(-c2nc(N3CCOCC3)c3[nH]cc(CN4CCCC4)c3n2)c1 [Example 7, {3-[4-morpholin-4-yl-7-(pyrrolidin-1-ylmethyl)-5H-pyrrolo[3,2-d]pyrimidin-2-yl]phenyl}methanol] |
| 0.072 µM | 11.1 µM | 4.28 µM | OCc1cccc(-c2nc(N3CCOCC3)c3[nH]cc(CNCCN4CCCCC4)c3n2)c1 [Example 8, [3-(4-morpholin-4-yl-7-{[(2-piperidin-1-ylethyl)amino]methyl}-5H-pyrrolo[3,2-d]pyrimidin-2-yl)phenyl]methanol] |
| 0.074 µM | 5.5 µM | 2.87 µM | OCc1cccc(-c2nc(N3CCOCC3)c3[nH]cc(CNCc4cccnc4)c3n2)c1 [Example 9, [3-(4-morpholin-4-yl-7-{[(pyridin-3-ylmethyl)amino]methyl}-5H-pyrrolo[3,2-d]pyrimidin-2-yl)phenyl]methanol] |
| 0.062 µM | 7.85 µM | 2.02 µM | CN1CCN(Cc2c[nH]c3c(N4CCOCC4)nc(-c4cccc(CO)c4)nc23)CC1 [Example 10] |
| 0.03 µM | 4.3 µM | 0.51 µM | OCc1cccc(-c2nc(N3CCOCC3)c3[nH]cc(CN4CCNCC4)c3n2)c1 [Example 11, {3-[4-morpholin-4-yl-7-(piperazin-1-ylmethyl)-5H-pyrrolo[3,2-d]pyrimidin-2-yl]phenyl}methanol] |
|  |  | 0.561 µM | CN(C)Cc1c[nH]c2c(N3CCOCC3)nc(-c3cccc(CO)c3)nc12 [Example 12] |
| 0.028 µM | 0.26 µM | 0.818 µM | CCN(CC)Cc1c[nH]c2c(N3CCOCC3)nc(-c3cccc(CO)c3)nc12 [Example 13] |
| 0.089 µM | 2.2 µM | 4.51 µM | OCc1cccc(-c2nc(N3CCOCC3)c3[nH]cc(CN4CCN(c5ncccn5)CC4)c3n2)c1 [Example 14] |
| 0.24 µM | 5.8 µM | 2.39 µM | OCc1cccc(-c2nc(N3CCOCC3)c3[nH]cc(CN4CCN(Cc5ccccc5)CC4)c3n2)c1 [Example 15] |
| 0.18 µM | > 4 µM | 3.03 µM | Oc1cccc(-c2nc(N3CCOCC3)c3[nH]cc(CNCc4cccnc4)c3n2)c1 [Example 16, 3-(4-morpholin-4-yl-7-{[(pyridin-3-ylmethyl)amino]methyl}-5H-pyrrolo[3,2-d]pyrimidin-2-yl)phenol] |

| IC50 (PI3 Kinase α) | IC50 (human TOR) | IC50 (PI3 Kinase γ) | Compound |
| --- | --- | --- | --- |
| 0.105 µM | 3.25 µM | 1.56 µM | Oc1cccc(-c2nc(N3CCOCC3)c3[nH]cc(CN4CCCC4)c3n2)c1 [Example 17, 3-[4-morpholin-4-yl-7-(pyrrolidin-1-ylmethyl)-5H-pyrrolo[3,2-d]pyrimidin-2-yl]phenol] |
| 0.074 µM | 3.3 µM | 1.15 µM | CN(C)Cc1c[nH]c2c(N3CCOCC3)nc(-c3cccc(O)c3)nc12 [Example 18, 3-{7-[(dimethylamino)methyl]-4-morpholin-4-yl-5H-pyrrolo[3,2-d]pyrimidin-2-yl}phenol] |
| 0.132 µM | 3.1 µM | 1.82 µM | CCN(CC)Cc1c[nH]c2c(N3CCOCC3)nc(-c3cccc(O)c3)nc12 [Example 19, 3-{7-[(diethylamino)methyl]-4-morpholin-4-yl-5H-pyrrolo[3,2-d]pyrimidin-2-yl}phenol] |
| 0.424 µM | 2 µM | 6.7 µM | Oc1cccc(-c2nc(N3CCOCC3)c3[nH]cc(CN4CCN(c5ncccn5)CC4)c3n2)c1 [Example 20, 3-{4-morpholin-4-yl-7-[(4-pyrimidin-2-ylpiperazin-1-yl)methyl]-5H-pyrrolo[3,2-d]pyrimidin-2-yl}phenol] |
| > 10 µM | 7 µM | > 10 µM | C1=C(c2c[nH]c3c(N4CCOCC4)nc(-c4cccc(OCc5ccccc5)c4)nc23)CCNC1 [Example 21, 2-[3-(benzyloxy)phenyl]-4-morpholin-4-yl-7-(1,2,3,6-tetrahydropyridin-4-yl)-5H-pyrrolo[3,2-d]pyrimidine] |
|  |  | 1.07 µM | Oc1cccc(-c2nc(N3CCOCC3)c3[nH]cc(C4CCNCC4)c3n2)c1 [Example 22, 3-(4-morpholin-4-yl-7-piperidin-4-yl-5H-pyrrolo[3,2-d]pyrimidin-2-yl)phenol] |
|  |  | 1.07 µM | Oc1cccc(-c2nc(N3CCOCC3)c3[nH]cc(C4CCN(Cc5ccc(F)cc5)CC4)c3n2)c1 [Example 23, 3-{7-[1-(4-fluorobenzyl)piperidin-4-yl]-4-morpholin-4-yl-5H-pyrrolo[3,2-d]pyrimidin-2-yl}phenol] |
| 0.26 µM | 1.7 µM | 2.79 µM | OCc1cccc(-c2nc(N3CCOCC3)c3[nH]cc(C4=CCN(Cc5ccccc5)CC4)c3n2)c1 [Example 25, {3-[7-(1-benzyl-1,2,3,6-tetrahydropyridin-4-yl)-4-morpholin-4-yl-5H-pyrrolo[3,2-d]pyrimidin-2-yl]phenyl}methanol] |
|  |  | 0.89 µM | Oc1cccc(-c2nc(N3CCOCC3)c3[nH]cc(C4CCN(Cc5ccccc5)CC4)c3n2)c1 [Example 26, 3-[7-(1-benzylpiperidin-4-yl)-4-morpholin-4-yl-5H-pyrrolo[3,2-d]pyrimidin-2-yl]phenol] |
| 0.297 µM | 2.75 µM | 1.61 µM | Oc1cccc(-c2nc(N3CCOCC3)c3[nH]cc(C4CCN(Cc5ccco5)CC4)c3n2)c1 [Example 27, 3-{7-[1-(2-furylmethyl)piperidin-4-yl]-4-morpholin-4-yl-5H-pyrrolo[3,2-d]pyrimidin-2-yl}phenol] |
| 0.358 µM | 2.5 µM | 0.983 µM | Oc1cccc(-c2nc(N3CCOCC3)c3[nH]cc(C4CCN(Cc5ncc[nH]5)CC4)c3n2)c1 [Example 28, 3-{7-[1-(1H-imidazol-2-ylmethyl)piperidin-4-yl]-4-morpholin-4-yl-5H-pyrrolo[3,2-d]pyrimidin-2-yl}phenol] |
| 0.498 µM | 3.15 µM | 1.9 µM | CC(C)CN1CCC(c2c[nH]c3c(N4CCOCC4)nc(-c4cccc(O)c4)nc23)CC1 [Example 29, 3-[7-(1-isobutylpiperidin-4-yl)-4-morpholin-4-yl-5H-pyrrolo[3,2-d]pyrimidin-2-yl]phenol] |
| 0.484 µM | 3.75 µM | 0.828 µM | CN1CCC(c2c[nH]c3c(N4CCOCC4)nc(-c4cccc(O)c4)nc23)CC1 [Example 30, 3-[7-(1-methylpiperidin-4-yl)-4-morpholin-4-yl-5H-pyrrolo[3,2-d]pyrimidin-2-yl]phenol] |
|  | 0.735 µM |  | Oc1cccc(-c2nc(N3CCOCC3)c3[nH]cc(C4CCN(Cc5ccc(Cl)nc5)CC4)c3n2)c1 [Example 35, 3-(7-{1-[(6-chloropyridin-3-yl)methyl]piperidin-4-yl}-4-morpholin-4-yl-5H-pyrrolo[3,2-d]pyrimidin-2-yl)phenol] |
|  | > 4 µM | 8.11 µM | Cn1ccc2nc(-c3cccc(CO)c3)nc(N3CCOCC3)c21 [Example 45, [3-(5-methyl-4-morpholin-4-yl-5H-pyrrolo[3,2-d]pyrimidin-2-yl)phenyl]methanol] |
|  | > 4 µM | > 10 µM | Cn1cc(CN2CCCC2)c2nc(-c3cccc(CO)c3)nc(N3CCOCC3)c21 [Example 47, {3-[5-methyl-4-morpholin-4-yl-7-(pyrrolidin-1-ylmethyl)-5H-pyrrolo[3,2-d]pyrimidin-2-yl]phenyl}methanol] |

| Compound | IC50 (PI3 Kinase α) | IC50 (human TOR) | IC50 (PI3 Kinase γ) |
| --- | --- | --- | --- |
| OCc1cccc(-c2nc(N3CCOCC3)c3[nH]cc(C4=CCNCC4)c3n2)c1 [Example 24, {3-[4-morpholin-4-yl-7-(1,2,3,6-tetrahydropyridin-4-yl)-5H-pyrrolo[3,2-d]pyrimidin-2-yl]phenyl}methanol] | 0.41 µM | 3.4 µM | 1.2 µM |
